Drawing on PubChem BioAssay (NCI), this text covers TGI for ten compounds.

Holding throughout (assay): DTP human tumour cell line panel, 48 h
Assay [1] relates to CAKI-1 renal.
For assay [2], the system named is HCT-116 colon.
For assay [3], the system named is HL-60(TB) leukemia.
Assay [4] concerns HOP-92 NSCLC.
Assay [5] has as its system LOX IMVI melanoma.
Assay [6] has as its system M14 melanoma.
Assay [7] deals with MDA-MB-231 breast.
Assay [8] has as its system MDA-N.
Assay [9] deals with NCI-H226 lung.
Assay [10] has as its system RPMI-8226 leukemia.
The test system of assay [11] is RXF 393 renal.
Assay [12] deals with SR leukemia.
Assay [13] deals with UO-31 renal.

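96-well plates; 48 h exposure; 5 concentrations. Endpoints by linear interpolation between flanking doses. Not reached: highest tested concentration assigned. The concentration for full growth arrest is given as TGI.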

One may read the TGI as the concentration giving total growth inhibition. Higher therefore signals lower sensitivity of the cells. For `Cc1cc(=O)n2nc(CN3CCCCC3)sc2n1`, the TGI in assay [1], in [2], in [3], in assay [4], in assay [5] and in [6] was greater than 100 µM each time. The TGI in [7], in assay [8], in assay [9], in assay [10], in assay [11] and in assay [12] was greater than 100 µM in each case. For the same compound, the TGI in [13] is greater than 100 µM.
For `CC1ON2CCCC2[C@H]1C(=O)N1C2CC3CCC2(CS1(=O)=O)C3(C)C` (stereo partly drawn), the TGI in assay [1], in [2], in [3], in assay [4], in assay [5] and in assay [6] was greater than 100 µM throughout. For the same compound, the TGI in [7], in assay [8], in assay [9], in [10], in [11] and in assay [12] was greater than 100 µM each time. The same compound yielded a TGI in assay [13] greater than 100 µM.
Regarding `Cc1ccc(NC(=S)N/N=C(/c2ccccc2)c2ccccn2)cc1`, the TGI in [1] came out at 9.48 µM; in assay [2] it was 14 µM; in assay [3], 2.26 µM; in [4] it was 8.82 µM; in assay [5], 14.9 µM; in assay [6] it was 2.21 µM. In addition, the TGI in assay [7] is 20.1 µM; in assay [8] it was 19.5 µM; in [9] it was 2.07 µM; in assay [10], greater than 58.4 µM; in assay [11], 12.7 µM; in assay [12], greater than 20.5 µM. The TGI in assay [13] came out at 7.68 µM.
As for `COC1(OC)CC(CO)(CNc2nc(N)nc(Cl)c2/C=N\O)C1`, the TGI is greater than 100 µM in [1]; greater than 100 µM in assay [2]; greater than 100 µM in assay [3]; 89.2 µM in assay [4]; greater than 100 µM in [5]; greater than 100 µM in assay [7]. The TGI in [8], in assay [9], in assay [10], in [11], in assay [12] and in [13] was greater than 100 µM throughout.
In the case of `CCOP(=O)(O)C1C(CO)OC(n2ccc(=O)[nH]c2=O)C1O` (stereo not drawn), the TGI in assay [1], in assay [2], in assay [3], in [4], in assay [5] and in assay [6] was greater than 100 µM in each case. Further, the TGI in assay [7], in assay [8], in [9], in assay [10], in assay [11] and in assay [12] was greater than 100 µM each time. The same compound yielded a total growth inhibition concentration (TGI) in assay [13] greater than 100 µM.
In the case of `CCOC(=O)C1(C(=O)OCC)C[C@H](C)[C@](C)(O)C1`, the TGI in assay [1], in assay [2], in assay [3], in assay [4], in assay [5] and in [6] was greater than 100 µM throughout. Moreover, the TGI in [7], in assay [8], in assay [9], in [10], in assay [11] and in [12] was greater than 100 µM each time. For the same compound, the TGI in assay [13] was greater than 100 µM.
`CC12CCC([C@H](C(O)C3CCCCC3)C1=O)C2(C)C` (stereo partly drawn): the TGI in assay [1] was greater than 100 µM; in assay [2], greater than 100 µM; in assay [3], 42.4 µM; in [4], greater than 100 µM; in assay [5] it was greater than 100 µM; in assay [6], greater than 100 µM. For the same compound, the TGI in [7], in assay [8], in assay [9], in [10], in [11] and in assay [12] was greater than 100 µM each time. In assay [13], this compound displayed a total growth inhibition concentration (TGI) greater than 100 µM.
Turning to `CC(C)(C)C1=CC(=C(c2ccc(-c3c4nc(c(-c5ccc(C(=C6C=C(C(C)(C)C)C(=O)C(C(C)(C)C)=C6)c6cc(C(C)(C)C)c(O)c(C(C)(C)C)c6)cc5)c5ccc([nH]5)c(-c5ccc(C(=C6C=C(C(C)(C)C)C(=O)C(C(C)(C)C)=C6)c6cc(C(C)(C)C)c(O)c(C(C)(C)C)c6)cc5)c5nc(c(-c6ccc(C(=C7C=C(C(C)(C)C)C(=O)C(C(C)(C)C)=C7)c7cc(C(C)(C)C)c(O)c(C(C)(C)C)c7)cc6)c6ccc3[nH]6)C=C5)C=C4)cc2)c2cc(C(C)(C)C)c(O)c(C(C)(C)C)c2)C=C(C(C)(C)C)C1=O`, the TGI in assay [1], in assay [2], in assay [3], in assay [4], in assay [5] and in assay [6] was greater than 100 µM throughout. Moreover, the TGI in assay [7], in assay [8], in assay [9], in assay [10], in assay [11] and in assay [12] was greater than 100 µM in each case. Besides, the TGI in assay [13] was greater than 100 µM.
On to `C/C=C(/C)C(=O)O[C@H]1C[C@@H]2[C@@H](O)c3occ(C)c3C[C@]2(C)[C@@H](C)C1`, for which the TGI in [1] stood at 33.3 µM; in assay [2], 28.5 µM; in assay [3] it was 28.9 µM; in assay [4], 31.4 µM; in [5], 32.8 µM; in [6], 29.9 µM. In addition, the concentration for total growth inhibition (TGI) in [7] amounted to 29.2 µM; in assay [8], 41.7 µM; in assay [9], 29.2 µM; in [10], 76.5 µM; in assay [11], 28.9 µM; in [12], 43.8 µM.
Turning to `Cc1ccccc1N=Nc1ccc(N/N=C2/CCCNC2=O)c(C)c1`, the TGI in [1], in assay [2], in assay [3], in assay [4], in [5] and in [6] was greater than 100 µM each time. Besides, the TGI in [7], in assay [8], in assay [9], in assay [10], in [11] and in [12] was greater than 100 µM in each case. The TGI in [13] is greater than 100 µM.
